For experiment [1], the system named is rats treated with Compound N. In words: Exogenous estradiol given to Compound N-treated pregnant rats. In kind it is in vivo, rat. Particulars: estradiol 0.1 μg. s.c. in sesame oil on days 4 and 5 of gestation, rats treated with Compound N days 2-6. How it is done: More specifically, if estradiol is subcutaneously given to rats treated with Compound N (days 2 - 6 of gestation) on days 4 and 5 of gestation at a dose of as little as 0.1 μg. each (dissolved in sesame oil), implantation already takes place in 3 of 8 animals, producing 100% viable embryos.

The subject of a further experiment is pregnant rats. In words: Implantation in pregnant rats with various compounds under Compound N (Examples 7-10). The experiment is classed as in vivo, rat. How it is done:
a) number of animals with implants/number of animals treated
b) mean implantation sites (based on those with implantation sites)
c) viable fetuses/total number of fetuses (successful pregnancy)
In this experiment, the activity of various compounds encompassed under Compound N are desmonstrated. Groups of 8 - 10 pregnant rats were injected subcutaneously b.i.d. with 0.5 ml. of the medium shown in Example 1 containing the compound and dose identified below. The results are expressed as explained in Example 2.

SMILES strings stand for the structures.

For `C[C@]12CC[C@@H]3c4ccc(O)cc4CC[C@H]3[C@@H]1CC[C@@H]2O` [estradiol], in experiment [1], the “animals in which implantation takes place” value is on record as 3 of 8 and the viable embryos is given as 100%.

Consider `CCNC(=O)[C@@H]1CCCN1C(=O)[C@H](CCCNC(=N)N)NC(=O)[C@H](CC(C)C)NC(=O)[C@@H](C)NC(=O)[C@H](Cc1ccc(O)cc1)NC(=O)[C@H](CO)NC(=O)[C@H](Cc1c[nH]c2ccccc12)NC(=O)[C@H](Cc1c[nH]cn1)NC(=O)[C@@H]1CCC(=O)N1` [Example 8, L-pGlu-L-His-L-Trp-L-Ser-L-Tyr-X-L-Leu-L-Arg-L-Pro-NH-R], for which, in the experiment on pregnant rats (Dose 10 μg. s.c. b.i.d.), the “a: number of animals with implants/number of animals treated” value was 0/10, the “b: mean implantation sites (based on those with implantation sites)” value turned out to be 0 and the “c: viable fetuses/total number of fetuses (successful pregnancy)” value is 0%.

For `CNC(=O)[C@@H]1CCCN1C(=O)[C@H](CCCNC(=N)N)NC(=O)[C@H](CC(C)C)NC(=O)[C@@H](CC(C)C)NC(=O)[C@H](Cc1ccc(O)cc1)NC(=O)[C@H](CO)NC(=O)[C@H](Cc1c[nH]c2ccccc12)NC(=O)[C@H](Cc1c[nH]cn1)NC(=O)[C@@H]1CCC(=O)N1` [Example 10, L-pGlu-L-His-L-Trp-L-Ser-L-Tyr-X-L-Leu-L-Arg-L-Pro-NH-R], in the experiment with pregnant rats (Dose 25 μg. s.c. b.i.d.), the “a: number of animals with implants/number of animals treated” value is listed as 0/10, the “b: mean implantation sites (based on those with implantation sites)” value is 0 and the “c: viable fetuses/total number of fetuses (successful pregnancy)” value turned out to be 0%.
